The results in this text go back to patent US10532054B2, “Compounds for the prevention and treatment of cardiovascular diseases” (Resverlogix Corp., priority 2007, dated 2020).

Each structure is given as a SMILES string.

The term melting point denotes the temperature of the solid-liquid transition. As for `COc1cc(OC)c2c(=O)[nH]c(-c3ccc(O)c(OC)c3)nc2c1` [Example 31, 2-(4-hydroxy-3-methoxyphenyl)-5,7-dimethoxyquinazolin-4(3H)-one], the melting point lay within 294 to 296 °C.
`COc1cc(OC)c2c(=O)[nH]c(-c3ccc(O)c(Cl)c3)nc2c1` [Example 32, 2-(3-chloro-4-hydroxyphenyl)-5,7-dimethoxyquinazolin-4(3H)-one] displayed a melting point of 279 to 281 °C.
The compound `Cc1cc(-c2nc3ccccc3c(=O)[nH]2)cc(C)c1OCCO` [Example 35, 2-(4-(2-hydroxyethoxy)-3,5-dimethylphenyl)quinazolin-4(3H)-one] showed a melting point of 260 to 261 °C.
To `O=c1[nH]c(-c2ccc3c(c2)OCCO3)nc2ccccc12` [Example 36, 2-(2,3-dihydrobenzo[b][1,4]dioxin-6-yl)quinazolin-4(3H)-one] belongs 267 to 268 °C (dec.); to `COc1cc(OC)c2c(=O)[nH]c(-c3ccc(N(C)C)c4ccccc34)nc2c1` [Example 37, 2-(4-(dimethylamino)naphthalen-1-yl)-5,7-dimethoxyquinazolin-4(3H)-one], 269 to 271 °C; to `COc1cc(OC)c2c(=O)[nH]c(-c3ccc(OCC(N)=O)cc3)nc2c1` [Example 38, 2-(4-(5,7-dimethoxy-4-oxo-3,4-dihydroquinazolin-2-yl)phenoxy)acetamide], 309 to 311 °C.
In turn, `O=C(O)COc1ccc(-c2nc3ccccc3c(=O)[nH]2)cc1` [Example 39, 2-(4-(4-oxo-3,4-dihydroquinazolin-2-yl)phenoxy)acetic acid] yielded a melting point of 285 to 287 °C.
Regarding `CN(C)c1ccc(-c2nc3ccccc3c(=O)[nH]2)c2ccccc12` [Example 40, 2-(4-(dimethylamino)naphthalen-1-yl)quinazolin-4(3H)-one], the melting point was 224 to 226 °C.
`NC(=O)COc1ccc(-c2nc3ccccc3c(=O)[nH]2)cc1` [Example 41, 2-(4-(4-oxo-3,4-dihydroquinazolin-2-yl)phenoxy)acetamide]: the melting point was in the range of 277.5 to 278.5 °C.
To `COc1cc(OC)c2c(=O)[nH]c(-c3ccc4c(c3)OCCO4)nc2c1` [Example 42, 2-(2,3-dihydrobenzo[b][1,4]dioxin-6-yl)-5,7-dimethoxyquinazolin-4(3H)-one] belongs 307.5 to 309.6 °C; to `COc1cc2nc(-c3ccc(N(C)C)c4ccccc34)[nH]c(=O)c2cc1OC` [Example 44], 235.5 to 236.5 °C; to `O=c1[nH]c(-c2ccc(N(CCO)CCO)cc2)nc2ccccc12` [Example 45, 2-(4-(bis(2-hydroxyethyl)amino)phenyl)quinazolin-4(3H)-one], 228 to 230 °C.
Consider `COc1cc(OC)c2c(=O)[nH]c(-c3ccc(N(CCO)CCO)cc3)nc2c1` [Example 46, 2-(4-(bis(2-hydroxyethyl)amino)phenyl)-5,7-dimethoxyquinazolin-4(3H)-one], for which the melting point is 249 to 251 °C.
The compound `COc1cc2nc(-c3ccc(N(CCO)CCO)cc3)[nH]c(=O)c2cc1OC` [Example 47, 2-(4-(bis(2-hydroxyethyl)amino)phenyl)-6,7-dimethoxyquinazolin-4(3H)-one] returned a melting point of 268 to 270 °C.
The compound `COc1cc2nc(-c3ccc4c(c3)OCCO4)[nH]c(=O)c2cc1OC` [Example 48, 2-(2,3-dihydrobenzo[b][1,4]dioxin-6-yl)-6,7-dimethoxyquinazolin-4(3H)-one] came in with a melting point of 316.4 to 318.2 °C.
For `COc1cc(OC)c2c(=O)[nH]c(-c3cc(C)c(OCCN4CCOCC4)c(C)c3)cc2n1` [Example 50, 7-(3,5-dimethyl-4-(2-morpholinoethoxy)phenyl)-2,4-dimethoxy-1,6-naphthyridin-5(6H)-one], the melting point is 212.5 to 212.9 °C.
For `COc1cc2cc(-c3cc(C)c(O)c(C)c3)[nH]c(=O)c2c(OC)c1CN1CCOCC1` [Example 51, 3-(4-hydroxy-3,5-dimethylphenyl)-6,8-dimethoxy-7-(morpholinomethyl)isoquinolin-1(2H)-one], the melting point is 158 to 161 °C.
With `COc1cc2nc(-c3cc(C)c(O)c(C)c3)[nH]c(=O)c2cc1OC` [Example 52, 2-(4-hydroxy-3,5-dimethylphenyl)-6,7-dimethoxyquinazolin-4(3H)-one], the melting point was > 300 °C.
The compound `COc1cc(OC)c2c(=O)[nH]c(-c3ccc(CCC(=O)O)cc3)nc2c1` [Example 53, 3-(4-(5,7-dimethoxy-4-oxo-3,4-dihydroquinazolin-2-yl)phenyl)propanoic acid] displayed a melting point of 250.6 to 251.1 °C.
As for `CC(=O)Nc1ccc2nc(-c3cc(C)c(O)c(C)c3)[nH]c(=O)c2c1` [Example 54, N-(2-(4-hydroxy-3,5-dimethylphenyl)-4-oxo-3,4-dihydroquinazolin-6-yl)acetamide], the figure is 336.5 °C (dec.).
The compound `COc1cc2nc(-c3cc(C)c(OCC(N)=O)c(C)c3)[nH]c(=O)c2cc1OC` [Example 55, 2-(4-(6,7-dimethoxy-4-oxo-3,4-dihydroquinazolin-2-yl)-2,6-dimethylphenoxy)acetamide] came in with a melting point of 354 to 356 °C.
As for `COc1cc(OC)c2c(=O)[nH]c(-c3ccc(OCCO)c(Cl)c3)nc2c1` [Example 56, 2-(3-chloro-4-(2-hydroxyethoxy)phenyl)-5,7-dimethoxyquinazolin-4(3H)-one], the figure is 287 to 288 °C (dec.); as for `COc1cc(OC)c2c(=O)[nH]c(-c3ccc(OCCO)c(OC)c3)nc2c1` [Example 57, 2-(4-(2-hydroxyethoxy)-3-methoxyphenyl)-5,7-dimethoxyquinazolin-4(3H)-one], 246 to 248 °C; as for `COc1cc2nc(-c3cc(C)c(OCCO)c(C)c3)[nH]c(=O)c2cc1OC` [Example 58, 2-(4-(2-hydroxyethoxy)-3,5-dimethylphenyl)-6,7-dimethoxyquinazolin-4(3H)-one], > 300 °C.
`COc1cc(OC)c2c(=O)[nH]c(-c3cc(C)c(NC(=O)CO)c(C)c3)nc2c1` [Example 60, N-(4-(5,7-dimethoxy-4-oxo-3,4-dihydroquinazolin-2-yl)-2,6-dimethylphenyl)-2-hydroxyacetamide] showed a melting point of 190 to 192 °C.
The compound `COc1cc(OC)c2c(=O)[nH]c(-c3cc(C)c(OCCO)c(C)c3)cc2n1` [Example 61, 7-(4-(2-hydroxyethoxy)-3,5-dimethylphenyl)-2,4-dimethoxy-1,6-naphthyridin-5(6H)-one] showed a melting point of 224.9 to 225.4 °C.
Take `COc1cc(OC)c2c(=O)[nH]c(-c3cc(C)c(OC)c(C)c3)cc2n1` [Example 63, 2,4-dimethoxy-7-(4-methoxy-3,5-dimethylphenyl)-1,6-naphthyridin-5(6H)-one]: the melting point is 262 to 263 °C (dec.).
`COc1cc(OC)c2c(=O)[nH]c(-c3cc(C)c(OCC(=O)O)c(C)c3)nc2c1` [Example 64, 2-(4-(5,7-dimethoxy-4-oxo-3,4-dihydroquinazolin-2-yl)-2,6-dimethylphenoxy)acetic acid]: the melting point fell in the range of 270 to 272 °C.
Compound `COc1cc(OC)c2c(=O)[nH]c(-c3ccc(NC(=O)CO)cc3)nc2c1` [Example 65, N-(4-(5,7-dimethoxy-4-oxo-3,4-dihydroquinazolin-2-yl)phenyl)-2-hydroxyacetamide] showed a melting point of 318 to 319 °C.
`COc1cc(OC)c2c(=O)[nH]c(-c3cc(C)c(O)c(C)c3)nc2n1` [Example 68, 2-(4-hydroxy-3,5-dimethylphenyl)-5,7-dimethoxypyrido[2,3-d]pyrimidin-4(3H)-one] came in with a melting point of 297 to 299 °C.
For the compound `COc1cc(OC)c2c(=O)[nH]c(-c3ccc(OC)c(CN4CCOCC4)c3)nc2c1` [Example 69, 5,7-dimethoxy-2-(4-methoxy-3-(morpholinomethyl)phenyl)quinazolin-4(3H)-one], the melting point lay in the range of 282.7 to 284.5 °C.
`COc1cc(OC)c2c(=O)[nH]c(-c3cc(C)c(OCCO)c(C)c3)nc2n1` [Example 70, 2-(4-(2-hydroxyethoxy)-3,5-dimethylphenyl)-5,7-dimethoxypyrido[2,3-d]pyrimidin-4(3H)-one] gave a melting point of 255 to 256 °C.
`COc1cc(OC)c2c(=O)nc(-c3cc(C)c(O)c(C)c3)n(C)c2c1` [Example 71, 2-(4-hydroxy-3,5-dimethylphenyl)-5,7-dimethoxy-1-methylquinazolin-4(1H)-one] came in with a melting point of 188.5 to 189.1 °C.
Regarding `CC(=O)Nc1ccc2nc(-c3cc(C)c(OCCO)c(C)c3)[nH]c(=O)c2c1` [Example 73, N-(2-(4-(2-hydroxyethoxy)-3,5-dimethylphenyl)-4-oxo-3,4-dihydroquinazolin-6-yl)acetamide], the melting point is > 300 °C.
As for `Cc1cc(-c2cc3nc(OC(C)C)cc(OC(C)C)c3c(=O)[nH]2)cc(C)c1O` [Example 74, 7-(4-hydroxy-3,5-dimethylphenyl)-2,4-diisopropoxy-1,6-naphthyridin-5(6H)-one], the figure is 206 to 208 °C; as for `COc1cc(OC)c2c(=O)[nH]c(-c3ccc(O)c(CCO)c3)nc2c1` [Example 75, 2-(4-hydroxy-3-(2-hydroxyethyl)phenyl)-5,7-dimethoxyquinazolin-4(3H)-one], 249 to 250.3 °C.
To `COc1cc(OC)c2cnc(-c3cc(C)c(OCCO)c(C)c3)nc2c1` [Example 76, 2-(4-(5,7-dimethoxyquinazolin-2-yl)-2,6-dimethylphenoxy)ethanol] belongs 169 to 170 °C; to `Cc1cc(C)c2c(=O)[nH]c(-c3cc(C)c(OCCO)c(C)c3)nc2c1` [Example 77, 2-(4-(2-hydroxyethoxy)-3,5-dimethylphenyl)-5,7-dimethylquinazolin-4(3H)-one], 259.6 to 261.2 °C.
As for `COc1cc(OC)c2c(=O)[nH]c(-c3ccc(N(CCO)CCO)cc3)nc2n1` [Example 78, 2-(4-(bis(2-hydroxyethyl)amino)phenyl)-5,7-dimethoxy-pyrido[2,3-d]pyrimidin-4(3H)one], the figure is 277 to 279 °C; as for `COCCOc1c(C)cc(-c2nc3cc(OC)cc(OC)c3c(=O)[nH]2)cc1C` [Example 79, 5,7-dimethoxy-2-(4-(2-methoxyethoxy)-3,5-dimethylphenyl)quinazolin-4(3H)-one], 201 to 202 °C.
